Measurements as given in PubChem BioAssay AID248 (DTP/NCI, 2004).
Several values for one entry are separate records, joined by “and”; a condition that tells them apart may be missing. Identical values can stand only once. Inconclusive results and toxic doses are left out.

Test system: L1210 leukemia ip in BDF1 mice, survival T/C
Assay: NCI In Vivo Anticancer Drug Screen. Data for tumor model L1210 Leukemia (intraperitoneal) in B6D2F1 (BDF1) mice
Settings: endpoint: mean survival time, higher = longer survival
Procedure, shortened: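 Value reflects the ratio of survival in compound-treated mice to survival in vehicle-treated controls, with both groups carrying the same transplanted tumor.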

[1] = dose: 50.0 mg/kg/injection, schedule: Q01DX009 (ip), vehicle: saline with Tween-80
[2] = dose: 200.0 mg/kg/injection, schedule: Q01DX009 (ip), vehicle: saline with Tween-80
[3] = dose: 12.5 mg/kg/injection, schedule: Q01DX009 (ip), vehicle: saline with Tween-80
[4] = dose: 25.0 mg/kg/injection, schedule: Q01DX009 (ip), vehicle: saline with Tween-80
[5] = dose: 100.0 mg/kg/injection, schedule: Q04DX003 (ip), vehicle: Klucel (hydroxypropylcellulose) (HPC)
[6] = dose: 200.0 mg/kg/injection, schedule: Q04DX003 (ip), vehicle: Klucel (hydroxypropylcellulose) (HPC)
[7] = dose: 400.0 mg/kg/injection, schedule: Q04DX003 (ip), vehicle: Klucel (hydroxypropylcellulose) (HPC)
[8] = dose: 100.0 mg/kg/injection, schedule: Q04DX003 (ip), vehicle: saline
[9] = dose: 200.0 mg/kg/injection, schedule: Q04DX003 (ip), vehicle: saline
[10] = dose: 400.0 mg/kg/injection, schedule: Q04DX003 (ip), vehicle: saline
[11] = dose: 100.0 mg/kg/injection, schedule: Q04DX003 (ip), vehicle: saline with Tween-80
[12] = dose: 200.0 mg/kg/injection, schedule: Q04DX003 (ip), vehicle: saline with Tween-80
[13] = dose: 400.0 mg/kg/injection, schedule: Q04DX003 (ip), vehicle: saline with Tween-80
[14] = dose: 75.0 mg/kg/injection, schedule: Q01DX001 (ip), vehicle: saline
[15] = dose: 150.0 mg/kg/injection, schedule: Q01DX001 (ip), vehicle: saline
[16] = dose: 100.0 mg/kg/injection, schedule: Q04DX002 (ip), vehicle: Klucel (hydroxypropylcellulose) (HPC)
[17] = dose: 200.0 mg/kg/injection, schedule: Q04DX002 (ip), vehicle: Klucel (hydroxypropylcellulose) (HPC)
[18] = dose: 400.0 mg/kg/injection, schedule: Q04DX002 (ip), vehicle: Klucel (hydroxypropylcellulose) (HPC)
[19] = dose: 100.0 mg/kg/injection, schedule: Q01DX009 (ip), vehicle: Klucel (hydroxypropylcellulose) (HPC)
[20] = dose: 200.0 mg/kg/injection, schedule: Q01DX009 (ip), vehicle: Klucel (hydroxypropylcellulose) (HPC)

In the case of `C1CC2CCC(N3CCOCC3)C(C1)O2` (stereo unspecified), the T/C [1] is reported as 102 % of control, the T/C (dose: 100.0 mg/kg/injection, schedule: Q01DX009 (ip), vehicle: saline with Tween-80) is reported as 102 % of control and the T/C [2] is reported as 102 % of control.

With `NC(=S)/C(N)=N/Nc1ccc(Cl)cc1` the T/C [3] was 92 % of control, the T/C (dose: 12.5 mg/kg/injection, schedule: Q01DX009 (ip), vehicle: saline) was 108 % of control and the T/C [4] was 92 % of control. The T/C (dose: 25.0 mg/kg/injection, schedule: Q01DX009 (ip), vehicle: saline) was 120 % of control and the T/C (dose: 50.0 mg/kg/injection, schedule: Q01DX009 (ip), vehicle: saline) was 103 % of control.

For `Cc1cc(N(CCCl)CCCl)ccc1C=Nc1ccc(-c2csc(-c3ccccc3)n2)c(Cl)c1`, the T/C (dose: 100.0 mg/kg/injection, schedule: Q01DX001 (ip), vehicle: carboxymethylcellulose (CMC)) was 98 % of control, the T/C (dose: 200.0 mg/kg/injection, schedule: Q01DX001 (ip), vehicle: carboxymethylcellulose (CMC)) was 95 % of control and the T/C (dose: 400.0 mg/kg/injection, schedule: Q01DX001 (ip), vehicle: carboxymethylcellulose (CMC)) was 107 % of control.

In the case of `O=[N+]([O-])c1ccc(Cl)cc1C1OCCO1`, the T/C (dose: 100.0 mg/kg/injection, schedule: Q01DX001 (ip), vehicle: saline) is reported as 93 % of control, the T/C (dose: 200.0 mg/kg/injection, schedule: Q01DX001 (ip), vehicle: saline) is reported as 93 % of control and the T/C (dose: 400.0 mg/kg/injection, schedule: Q01DX001 (ip), vehicle: saline) is reported as 104 % of control.

For `CON(C)S(=O)(=O)c1ccccc1`, the T/C [5] was 103 % of control, the T/C [6] was 97 % of control and the T/C [7] was 95 % of control.

In the case of `CN(C)/C=N/NC(=O)C1CC1`, the T/C [8] is reported as 100 % of control, the T/C [9] is reported as 97 % of control and the T/C [10] is reported as 107 % of control.

For `CC(=O)OC1C(C)OC(OC2C=C3CCC4C(CCC5(C)C(c6ccc(=O)oc6)CCC45O)C3(C)CC2)C(OC(C)=O)C1OC(C)=O` (stereo unspecified), the T/C (dose: 6.25 mg/kg/injection, schedule: Q01DX009 (ip), vehicle: saline with Tween-80) was 102 % of control, the T/C [3] was 100 % of control and the T/C (dose: 12.5 mg/kg/injection, schedule: Q04DX003 (ip), vehicle: saline with Tween-80) was 105 % of control. The T/C [4] was 103 % of control and the T/C (dose: 25.0 mg/kg/injection, schedule: Q04DX003 (ip), vehicle: saline with Tween-80) was 105 % of control.

For `CCOC(=O)C(C=O)(NC(=O)c1ccccc1)OCC` (stereo unspecified), the T/C [11] was 94 % of control, the T/C [12] was 101 % of control and the T/C [13] was 105 % of control.

`Cc1[nH]nc2c(=S)[nH]c(=O)[nH]c12` was tested, and the T/C [14] was 92 % of control and the T/C [15] was 96 % of control.

`CCOC(=O)C1C2CCC/C(=N\NS(=O)(=O)c3ccc(C)cc3)C21` (stereo unspecified) was tested, and the T/C [16] was 104 % of control, the T/C [17] was 100 % of control and the T/C [18] was 96 % of control.

In the case of `NC(N)=N/N=C(\CBr)c1ccc([N+](=O)[O-])cc1`, the T/C (dose: 15.0 mg/kg/injection, schedule: Q01DX Z (ip), vehicle: carboxymethylcellulose (CMC)) is reported as 97 % of control, the T/C (dose: 30.0 mg/kg/injection, schedule: Q01DX Z (ip), vehicle: carboxymethylcellulose (CMC)) is reported as 92 % of control and the T/C (dose: 30.0 mg/kg/injection, schedule: Q01DX Z (oral), vehicle: carboxymethylcellulose (CMC)) is reported as 100 % of control. For the same compound, the T/C (dose: 60.0 mg/kg/injection, schedule: Q01DX Z (ip), vehicle: carboxymethylcellulose (CMC)) was 98 % of control and 91 % of control, the T/C (dose: 60.0 mg/kg/injection, schedule: Q01DX Z (oral), vehicle: carboxymethylcellulose (CMC)) was 103 % of control and the T/C (dose: 120.0 mg/kg/injection, schedule: Q01DX Z (ip), vehicle: carboxymethylcellulose (CMC)) was 92 % of control. For the same compound, the T/C (dose: 120.0 mg/kg/injection, schedule: Q01DX Z (oral), vehicle: carboxymethylcellulose (CMC)) was 102 % of control and the T/C (dose: 240.0 mg/kg/injection, schedule: Q01DX Z (oral), vehicle: carboxymethylcellulose (CMC)) was 92 % of control.

In the case of `CC1(C)OC2COC(c3[nH]nc(C(N)=O)c3Br)C2O1` (stereo unspecified), the T/C (dose: 100.0 mg/kg/injection, schedule: Q01DX005 (ip), vehicle: saline) is reported as 104 % of control and the T/C (dose: 200.0 mg/kg/injection, schedule: Q01DX005 (ip), vehicle: saline) is reported as 96 % of control.

In the case of `O=C1c2ccccc2C(=O)C1c1nc2ccccc2cc1O`, the T/C [3] is reported as 94 % of control, the T/C (dose: 12.5 mg/kg/injection, schedule: Q04DX002 (ip), vehicle: saline with Tween-80) is reported as 96 % of control and the T/C [4] is reported as 96 % of control and 102 % of control. For the same compound, the T/C (dose: 25.0 mg/kg/injection, schedule: Q04DX002 (ip), vehicle: saline with Tween-80) was 104 % of control, the T/C [1] was 102 % of control and the T/C (dose: 50.0 mg/kg/injection, schedule: Q04DX002 (ip), vehicle: saline with Tween-80) was 89 % of control. The T/C (dose: 115.0 mg/kg/injection, schedule: Q01DX009 (ip), vehicle: saline with Tween-80) was 93 % of control and the T/C (dose: 170.0 mg/kg/injection, schedule: Q01DX009 (ip), vehicle: saline with Tween-80) was 100 % of control.

In the case of `CCOc1ccc(/C=N/NC(=S)NC23CC4CC(CC(C4)C2)C3)cc1OCC`, the T/C [14] is reported as 94 % of control, the T/C [15] is reported as 95 % of control and the T/C (dose: 300.0 mg/kg/injection, schedule: Q01DX001 (ip), vehicle: saline) is reported as 94 % of control.

For `O=C(O)/C(=C\c1ccccc1[N+](=O)[O-])c1cccc(Cl)c1`, the T/C [19] was 90 % of control and the T/C [20] was 95 % of control.

For `CC(C)(C)C(=O)CN1C(=O)c2ccccc2C1=O`, the T/C (dose: 100.0 mg/kg/injection, schedule: Q01DX001 (ip), vehicle: Klucel (hydroxypropylcellulose) (HPC)) was 108 % of control, the T/C [19] was 96 % of control and 97 % of control and the T/C [16] was 101 % of control and 103 % of control. For the same compound, the T/C [5] was 101 % of control, the T/C (dose: 200.0 mg/kg/injection, schedule: Q01DX001 (ip), vehicle: Klucel (hydroxypropylcellulose) (HPC)) was 112 % of control and the T/C [20] was 96 % of control and 104 % of control. For the same compound, the T/C [17] was 98 % of control and 103 % of control, the T/C [6] was 95 % of control and the T/C (dose: 400.0 mg/kg/injection, schedule: Q01DX001 (ip), vehicle: Klucel (hydroxypropylcellulose) (HPC)) was 118 % of control. The T/C (dose: 400.0 mg/kg/injection, schedule: Q01DX009 (ip), vehicle: Klucel (hydroxypropylcellulose) (HPC)) was 97 % of control and 108 % of control, the T/C [18] was 103 % of control and 109 % of control and the T/C [7] was 103 % of control.

In the case of `CCCCN(C)N=Nc1ccc([N+](=O)[O-])cc1C(N)=O`, the T/C (dose: 100.0 mg/kg/injection, schedule: Q01DX001 (ip), vehicle: other) is reported as 100 % of control, the T/C [11] is reported as 110 % of control and the T/C (dose: 200.0 mg/kg/injection, schedule: Q01DX001 (ip), vehicle: other) is reported as 105 % of control. The T/C [2] was 122 % of control, the T/C [12] was 109 % of control and the T/C (dose: 266.0 mg/kg/injection, schedule: Q01DX009 (ip), vehicle: saline with Tween-80) was 160 % of control. The T/C (dose: 400.0 mg/kg/injection, schedule: Q01DX001 (ip), vehicle: other) was 110 % of control, the T/C (dose: 400.0 mg/kg/injection, schedule: Q01DX009 (ip), vehicle: saline with Tween-80) was 165 % of control and 170 % of control and the T/C [13] was 115 % of control. The T/C (dose: 600.0 mg/kg/injection, schedule: Q01DX009 (ip), vehicle: saline with Tween-80) was 200 % of control.

With `COC(=O)C(N)CSCc1ccccc1` (stereo unspecified) the T/C [8] was 87 % of control, the T/C [9] was 89 % of control and the T/C [10] was 94 % of control.

`COc1ccc(C(=O)CBr)c(OC)c1C` was tested, and the T/C (dose: 12.5 mg/kg/injection, schedule: Q01DX009 (ip), vehicle: Klucel (hydroxypropylcellulose) (HPC)) was 94 % of control, the T/C (dose: 12.5 mg/kg/injection, schedule: Q04DX003 (ip), vehicle: Klucel (hydroxypropylcellulose) (HPC)) was 100 % of control and the T/C (dose: 25.0 mg/kg/injection, schedule: Q01DX009 (ip), vehicle: Klucel (hydroxypropylcellulose) (HPC)) was 91 % of control. The T/C (dose: 25.0 mg/kg/injection, schedule: Q04DX003 (ip), vehicle: Klucel (hydroxypropylcellulose) (HPC)) was 105 % of control and the T/C (dose: 50.0 mg/kg/injection, schedule: Q04DX003 (ip), vehicle: Klucel (hydroxypropylcellulose) (HPC)) was 96 % of control.
